In PMC12392461, “Beyond Estrogenicity: A Comparative Assessment of Bisphenol A and Its Alternatives in In Vitro Assays Questions Safety of Replacements” (Environmental Science & Technology, 2025):
Read-outs that look alike come from different tables or passages of the source.

Tests used:
[1] = tested on: Antioxidant response element; assay: MitoOxTox: oxidative stress response in AREc32; conditions: for EC10, linear: linear model fit; for EC10: Arec32, read-out: EC10, linear transformed
Source text: (§1) All bioassay media components and the ERα-UAS-bla GripTite and PPARγ-UAS-bla cells were obtained from Thermo Fisher Scientific (Waltham, MA, USA). AREc32 reporter gene cells based on MCF7 were provided by C. Roland Wolf (Cancer Research UK); AhR CALUX cells (H4L7.5c2 derived from H4IIe) were provided by Michael Denison (UC Davis, USA); and SH-SY5Y cells were purchased from Sigma-Aldrich.
(§2) Cell culture conditions and bioassay protocols including response detection are provided in Text S2.1–2.4 and Table S3. − Cell viability was determined from cell confluency using an IncuCyte S3 Live-Cell Analysis System (Sartorius AG, Essen, Germany) before and after exposure, except for SH-SY5Y cells (live–dead staining with Nuclear Green LcS1 and propidium iodide, Abcam, UK). For metabolic activation experiments, cell viability was assessed using the ToxBLAzer DualScreen Kit (Thermo Fisher Scientific) to capture the remaining toxicity in ERα-UAS-bla GripTite after treatment with the aCYP catalyst (details in Text S2.4).
(§3) For ARE, the concentration that triggered an induction ratio of 1.5 (ECIR1.5) was used as the benchmark value, as detailed in Text S2.5. IC10 values also served as a threshold for data analysis in all assays; only concentrations below IC10 were considered when deriving EC10 or ECIR1.5. […]
(§4) S2: Cell culture and bioassays
(§5) S2.1: Cell Culturing Conditions
(§6) All suppliers and sources are given in detail in SI-Excel S3. The bioassay media for the different assays were prepared as follows: Assay medium for ER alpha-UAS-bla GripTite (ERα) and PPAR gamma-UAS-bla 293H (PPARγ) was prepared with 98% Opti-MEM, supplemented with 2% charcoal-stripped FBS, and 100 U/mL penicillin-streptomycin. MitoOxTox and AhR assay medium was comprised of 90% DMEM with GlutaMAX, supplemented with 10% FBS, and 100 U/mL penicillin-streptomycin. Neurotoxicity assay medium consisted of the neurobasal […]
(§7) (1 picture or pasted object on this page, not shown here) […]
(§8) medium, supplemented with 2% B-27 Supplement and 2 mM GlutaMAX Supplement. SH - SY5Y cells were differentiated with 10 µM all-trans retinoic acid prior to the assay.
(§9) S2.2: Cell Seeding and Incubation. For all bioassays, cell suspensions in the respective assay medium were dispensed into each well of 384-well plates using a MultiFlo Dispenser (Biotek, (now Agilent), Winooski, VT, U.S.). After seeding, the plates were incubated at 37° C and 5% CO₂ for […]. The final cell densities and plate types were as follows: Black poly-D-lysine coated 384-well plates (Product No. 354663, Corning Inc., NYC, U.S.) were used for PPARγ:
(§10) 6500 cells/well, ERα: 5000 cells/well. White 384-well plates with a clear bottom (Product No.
(§11) 781098, Greiner, Kremsmünster, Austria) were utilized for the MitoOxTox assay: 2650

[2] = biological target: T1, Aryl hydrocarbon receptor (Rattus norvegicus, UniProt P41738); conditions: for EC10, linear / logEC10 / EC10, linear transformed: Bioassay AhR, dosing range all; for EC10, linear: linear model fit; for logEC10: log-logistic model fit; for log(1/EC10) AhR: input of the ToxPi score, values up to 1.00
T1 sequence (P41738 10-853): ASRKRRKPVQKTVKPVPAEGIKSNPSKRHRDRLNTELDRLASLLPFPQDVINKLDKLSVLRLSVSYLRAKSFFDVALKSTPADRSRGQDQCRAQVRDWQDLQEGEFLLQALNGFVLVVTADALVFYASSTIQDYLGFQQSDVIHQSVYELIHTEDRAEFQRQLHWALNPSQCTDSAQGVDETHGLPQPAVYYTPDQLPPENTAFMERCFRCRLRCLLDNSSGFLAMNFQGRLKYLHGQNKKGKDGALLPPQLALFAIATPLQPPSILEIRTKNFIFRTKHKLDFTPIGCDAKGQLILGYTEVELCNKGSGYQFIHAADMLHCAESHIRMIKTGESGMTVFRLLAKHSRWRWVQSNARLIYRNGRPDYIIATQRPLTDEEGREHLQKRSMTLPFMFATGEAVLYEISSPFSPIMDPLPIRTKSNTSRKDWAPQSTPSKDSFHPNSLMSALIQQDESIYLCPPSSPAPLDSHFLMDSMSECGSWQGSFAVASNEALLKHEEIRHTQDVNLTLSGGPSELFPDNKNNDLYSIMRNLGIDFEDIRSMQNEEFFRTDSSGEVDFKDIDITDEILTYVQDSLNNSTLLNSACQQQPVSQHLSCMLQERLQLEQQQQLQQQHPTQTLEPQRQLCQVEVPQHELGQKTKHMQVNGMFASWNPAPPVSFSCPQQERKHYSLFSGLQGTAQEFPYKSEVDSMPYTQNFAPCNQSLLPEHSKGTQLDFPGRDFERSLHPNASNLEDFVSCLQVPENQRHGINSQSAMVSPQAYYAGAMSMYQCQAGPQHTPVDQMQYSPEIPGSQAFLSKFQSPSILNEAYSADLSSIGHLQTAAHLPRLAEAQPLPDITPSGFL
Source text: as §1, §2, §3, §4, §5, §6, §7, §8, §9, §10, §11

[3] = tested on: ERα-UAS-bla GripTite cells
Description: as §2, with “S2.4). […]” for “S2.4).”
The TK-Ratio method was used to evaluate the impact of abiotic CYP oxidation on the potency of tested compounds. […]
For experiments with the preceding aCYP activation, ERα cell viability was additionally calculated from the readout of the ToxBLAzer reagent. The ToxBLAzer assay was conducted following the manufacturer's instructions (Thermo Fisher, Waltham, MA, U.S.).13 Fluorescence intensity was recorded at the start of the assay ( Fwavelength(0h)) and after a 2-hour incubation at […]
eq. S11 for normalization.
Cell viability = F665nm(2h, sample)-F665nm(0h, average cell-free) (S11) F665nm(2h, average unexposed)-F665nm(0h, average cell-free) […]
the specific endpoint to avoid artifacts from cytotoxicity burst. 15
S2.5: Concentration-response curves (CRCs)
To avoid bias from cytotoxicity burst at higher concentrations, all concentrations exceeding the IC10 for cytotoxicity were excluded in the CRC modeling of effects but otherwise cytotoxicity and effects were fitted with the same model equations (response stands for cytotoxicity or effect). For ERα, AhR, ARE and PPARγ preferably a linear model was fitted to the linear portion of CRC up to maximum 30% effect (eq. S12),16 but in some cases it was necessary to choose a sigmoidal log-concentration-response model, specifically a log-logistic model (eq. S13), to derive effect concentrations and cytotoxicity. […]
This was done using the
AutomatedBioassayScreening19 published by Braun et al.,20 which also included an algorithm to choose the best model between eq. S12 and eq. S13.
Response (%) = slope × C (S12) […]
logEC =logEC − 1 ∙log (max−min − 100%) (S14)

[4] = Bioassay ARE, dosing range all, log-logistic model fit
[5] = Table S10, TKcytotoxicity-Ratio

Structure (SMILES): CC1(C)C(O)C(C)(C)C1O (racemic) [r-TMCD, 2,2,4,4-Tetramethyl-1,3-cyclobutanediol (racemate)]
- EC10, linear ([1]; Bioassay ARE, dosing range all): no effect
- logEC10 [1, 4]: no effect
- EC10, linear [2]: no effect
- logEC10 [2]: no effect

Structure (SMILES): O=S(=O)(c1ccc(O)cc1)c1ccccc1O [2,4-BPS, 2,4'-Dihydroxydiphenyl sulfone]
- TKcytotoxicity ([3]; human): 1.61
- EC10 [1]: 88.7 mM
- EC10, linear ([1]; Bioassay ARE, dosing range all): no effect
- logEC10 [1, 4]: no effect
- EC10, linear [2]: no effect
- logEC10 [2]: no effect
- log(1/EC10) AhR [2]: 0.74

Structure (SMILES): CC(C)(c1ccc(OCC2CO2)cc1)c1ccc(OCC2CO2)cc1 (stereo not shown) [BADGE, Bisphenol A diglycidyl ether]
- oxidative stress response (ARE activation) [1]: lacked any oxidative stress response
- EC10, linear ([1]; Bioassay ARE, dosing range all): no effect
- logEC10 [1, 4]: no effect
- EC10, linear [2]: no effect
- logEC10 [2]: no effect

Structure (SMILES): CC(C)CC(C)(c1ccc(O)cc1)c1ccc(O)cc1 [BP-MIBK, 4,4'-(1,3-Dimethylbutylidene)diphenol]
- TKcytotoxicity ([3]; human): 0.48
- EC10, linear ([1]; Bioassay ARE, dosing range all): no effect
- logEC10 [1, 4]: no effect
- EC10, linear [2]: no effect
- logEC10 [2]: no effect
- log(1/EC10) AhR [2]: 0.86

Structure (SMILES): CC(C)(c1ccc(O)cc1)c1ccc(O)cc1 [BPA, 4,4'-(Propane-2,2-diyl)diphenol, reference compound]
- TKcytotoxicity (TK-Ratio for cytotoxicity) ([3]; IC10 before/after aCYP oxidation): ≤ 2
- TKcytotoxicity [3, 5]: 1.13
- TKcytotoxicity ([3]; Table S11, TKcytotoxicity-Ratio): 0.63
- oxidative stress response (ARE activation) [1]: did not induce ARE
- EC10 [1]: 1.51 mM
- EC10, linear ([1]; Bioassay ARE, dosing range all): no effect
- logEC10 [1, 4]: masked by cytotoxicity
- EC10, AhR (M) [2]: 2.64 × 10^–4 M
- EC10, linear transformed [2]: 3.80E-04
- EC10, linear [2]: 2.64E-04
- logEC10 [2]: no effect
- SR-ScoreAhR ([2]; SR-Score, sigma k=1, x=5): 0.00737
- Specificity ratio (SRbaseline) SRAhR ([2]; against baseline cytotoxicity): 0.10
- EC10, AhR ([2]; effect): 0.264 mM
- log(1/EC10) AhR [2]: 0.79
- Specificity ratio (SRcytotoxicity) SRAhR ([2]; rat, 24 h): 0.00
- SR (AhR) ([2]; specificity ratio): ≤ 10

Structure (SMILES): O=S(=O)(c1ccc(O)cc1)c1ccc(O)cc1 [BPS, 4,4'-Sulfonyldiphenol]
- EC10, linear ([1]; Bioassay ARE, dosing range all): no effect
- logEC10 [1, 4]: no effect
- EC10, linear [2]: no effect
- logEC10 [2]: no effect
- log(1/EC10) AhR [2]: 0.68

Structure (SMILES): Oc1ccc(C2(c3ccc(O)cc3)CCCCC2)cc1 [BPZ, 1,1'-Bis(4-hydroxyphenyl)cyclohexane]
- TKcytotoxicity [3, 5]: 0.53

Structure (SMILES): CC(C)(c1cc(Br)c(O)c(Br)c1)c1cc(Br)c(O)c(Br)c1 [TBBPA, 3,3',5,5'-Tetrabromobisphenol A]
- TKcytotoxicity [3, 5]: 0.52
- logEC10 [1]: no effect
- EC10, linear ([1]; Bioassay ARE, dosing range all): no effect

Structure (SMILES): CC1(C)[C@H](O)C(C)(C)[C@H]1O [Trans TMCD]
- EC10, linear ([1]; Bioassay ARE, dosing range all): no effect
- logEC10 [1, 4]: no effect
- EC10, linear transformed [2]: 8.49E-03
- EC10, linear [2]: no effect
- logEC10 [2]: -2.00

Structure (SMILES): CC1(C)[C@H](O)C(C)(C)[C@H]1O [t-TMCD, trans-2,2,4,4-Tetramethyl-1,3-cyclobutanediol]
- TKcytotoxicity [3, 5]: 1.74
- log(1/EC10) AhR [2]: 0.30
